The record followed here is patent publication US6255497A, “Method for the inhibition of ALDH-I useful in the treatment of alcohol dependence or alcohol abuse” (priority 1998, dated 2001).

Data set [1] has as its target T1, ALDH-I (Homo sapiens, UniProt P05091).
T1 sequence (P05091 18-517): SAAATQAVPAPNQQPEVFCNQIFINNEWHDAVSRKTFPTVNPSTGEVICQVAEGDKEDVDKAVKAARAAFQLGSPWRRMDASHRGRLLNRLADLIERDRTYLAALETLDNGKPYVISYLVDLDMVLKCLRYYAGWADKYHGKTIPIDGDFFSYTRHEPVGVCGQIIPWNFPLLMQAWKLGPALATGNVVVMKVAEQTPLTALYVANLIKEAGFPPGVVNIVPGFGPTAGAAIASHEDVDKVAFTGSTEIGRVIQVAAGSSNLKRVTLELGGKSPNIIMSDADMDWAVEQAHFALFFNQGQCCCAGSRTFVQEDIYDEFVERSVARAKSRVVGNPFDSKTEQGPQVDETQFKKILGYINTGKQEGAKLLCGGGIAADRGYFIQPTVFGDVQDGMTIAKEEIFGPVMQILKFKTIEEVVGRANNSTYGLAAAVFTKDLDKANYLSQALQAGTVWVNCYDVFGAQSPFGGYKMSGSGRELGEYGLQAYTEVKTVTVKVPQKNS
The experiment in a line: ALDH-I inhibition by structurally related compounds, acetaldehyde as substrate. The class given is biochemical. Also on record: A liver sample (50 g wet weight) with the usual Caucasian ALDH phenotype (both ALDH-I and ALDH-II present); from tissue; host or cells: human liver (autopsy), purified by CM-52, AMP-agarose and DEAE HPLC. As to the method: (§1) *ALDH activities were assayed at 25° C. in 0.1 M sodium
(§2) pyrophosphate buffer pH 9.5 containins 0.15 M KCl, 1 mM NAD^+, various
(§3) concentrations of inhibitors and 5 and 200 μM acetaldehyde for ALDH-I
(§4) and ALDH-II, respectively.
For controls, 10 .eta.L of methanol was added to the assay medium. In a standard ALDH-I assay, the assay medium contains 0.1 M sodium pyrophosphate pH 9.5, 0.15 M KCl, 1 mM NAD^+, 1% methanol, 5 μM acetaldehyde, 5-10 nM ALDH-I and various concentrations of inhibitor. […] (Fong et al., 1989, supra). The inhibition of ALDH-I by the inhibitors was calculated as: [formula]
(§5) where Vo is the enzyme reaction rate measured in the absence of inhibitor, and where Vi is the enzyme reaction rate measured in the presence of inhibitor. […] IC50 values are related to the underlying Ki values.

Data set [2] deals with T2, ALDH-II (Homo sapiens, UniProt P00352).
T2 sequence (P00352 1-501): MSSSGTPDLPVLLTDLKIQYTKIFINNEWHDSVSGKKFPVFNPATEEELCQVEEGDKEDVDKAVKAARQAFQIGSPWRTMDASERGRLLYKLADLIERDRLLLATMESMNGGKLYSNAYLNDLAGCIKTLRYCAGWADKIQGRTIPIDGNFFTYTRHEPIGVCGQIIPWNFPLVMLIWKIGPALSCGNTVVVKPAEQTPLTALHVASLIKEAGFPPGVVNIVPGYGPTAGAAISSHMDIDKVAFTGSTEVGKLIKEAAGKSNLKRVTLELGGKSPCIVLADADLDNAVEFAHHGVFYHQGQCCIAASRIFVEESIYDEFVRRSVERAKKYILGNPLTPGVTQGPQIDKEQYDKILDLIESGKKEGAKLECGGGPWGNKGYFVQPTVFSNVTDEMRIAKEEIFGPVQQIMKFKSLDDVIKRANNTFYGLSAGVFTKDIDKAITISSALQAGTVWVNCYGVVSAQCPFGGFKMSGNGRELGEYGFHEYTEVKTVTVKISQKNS
The experiment in a line: ALDH-II inhibition by structurally related compounds, acetaldehyde as substrate. The class given is biochemical. Set-up: A liver sample (50 g wet weight) with the usual Caucasian ALDH phenotype (both ALDH-I and ALDH-II present); from tissue; host or cells: human liver (autopsy), purified by CM-52, AMP-agarose and DEAE HPLC. The protocol:
as §1, §2, §3, §4
(§6) For the study of the inhibition of ALDH-I by structurally related compounds to generate the data shown in Tables IV and V, each individual compound was dissolved at different concentrations in methanol and was added to the assay medium as 10 μL aliquots. For controls, 10 […] of methanol was added to the assay medium. In a standard ALDH-I assay, the assay medium contains 0.1 M sodium pyrophosphate pH 9.5, 0.15 M KCl, 1 mM NAD^+, 1% methanol, 5 μM acetaldehyde, 5-10 nM ALDH-I and various concentrations of inhibitor. The enzyme reaction rates were measured by monitoring the production of NADH at 340 nm (ε=6.22 mM^-1 cm^-1) with a Varian Cary 219 spectrophotometer thermostated at 25° C. (Fong et al., 1989, supra). The inhibition of ALDH-I by the inhibitors was calculated as: [formula]
as §5

Data set [3] addresses T1, ALDH-I. The experiment in a line: Inhibition kinetics of ALDH-I, initial velocity method, formaldehyde as substrate. As to conditions: for potency as ALDH-I inhibitor, fold less than that of daidzin / relative potency as ALDH-I inhibitor, in words: compared with daidzin. As to the method:
The kinetic data were analyzed by standard graphical methods.

The target of data set [4] is T2, ALDH-II. In words: Inhibition kinetics of ALDH-II, initial velocity method, formaldehyde as substrate.
In data set [5] the target is T1, ALDH-I. In words: Reversibility of ALDH-I inhibition (preincubation, then dilution). The class given is biochemical. Set-up: A liver sample (50 g wet weight) with the usual Caucasian ALDH phenotype (both ALDH-I and ALDH-II present); from tissue; host or cells: human liver (autopsy), purified by CM-52, AMP-agarose and DEAE HPLC.
Another data set can be described thus: physchem. As to conditions: water.
In data set [6] the target is T2, ALDH-II. In words: Competitive inhibition of ALDH-II with acetaldehyde as substrate. The class given is biochemical. Also on record: A liver sample (50 g wet weight) with the usual Caucasian ALDH phenotype (both ALDH-I and ALDH-II present); from tissue; host or cells: human liver (autopsy), purified by CM-52, AMP-agarose and DEAE HPLC. As to conditions: acetaldehyde as substrate, competitive; read-out: Ki, ALDH-II.

The next data set deals with ALDH-I or ALDH-II. The experiment in a line: Survey of structurally related compounds for ALDH inhibition. The class given is biochemical, human. The protocol: as §6, §5
For the next data set, the system named is golden hamsters. In words: Dose effect on free choice ethanol intake in golden hamsters, i.p. The format is in vivo, golden hamster. The settings on record: 10 mg/day, i.p. From the text:
It is common practice in quantitative drug studies with rodents to use intraperitoneal (i.p.) administration to deliver drug doses accurately (Goodman and Gilman, 1975, The Pharmacological Basis of Therapeutics, 5th ed., Macmillan, N.Y., p. 8). In particular, this method avoids variability introduced by technical difficulties of oral administration via feeding (full versus empty stomach, etc.), variations in drug transport in the gastrointestinal tract (variations in intestinal fauna and flora, individual variations in absorption rate expected of outbred animals, etc.) and other factors. […] As a control 1 ml of sterile saline was injected i.p. daily during the baseline period (typically 7-9 days) that establishes drinking preference without the drug. Saline injection i.p. had no effect on the drinking behavior of golden hamsters. Ethanol was provided as a 20% solution. Hamsters could be used more than once (but were not used more than three times) in a cycle of baseline saline injections followed by drug injections, each cycle with the drug at a different dose.
The response to daidzin treatment was computed as:
% Response=(Vo -Vd)×100/Vo

Substrate in data set [7]: C=O
The experiment in a line: purified protein, by the assay type. As to conditions: pH 9.5; 25.0 °C.

Setting [8] is: 5 μM acetaldehyde, 1 mM NAD+, pH 9.5, 25° C., read-out: IC50, ALDH-I.
The mark [9] stands for this setting: 200 μM acetaldehyde, 1 mM NAD+, pH 9.5, 25° C., read-out: IC50, ALDH-II.

Values after ≈ are worked out from the molar mass of the structure shown. Like-named read-outs stand apart in the source and are kept apart here. Bounds are passed on as bounds.

`O=c1c(-c2ccccc2)c(-c2ccccc2)oc2cc(O)ccc12` [3-Phenyl-7-hydroxyflavone]: the IC50 (commonly the concentration that gives 50% inhibition) was 10000 nM at ALDH-I [1] (setting [8]) and 2000 nM at ALDH-II [2] (setting [9]).
As to `O=c1c(-c2ccc(O)cc2)coc2cc(O[C@@H]3O[C@H](CO)[C@@H](O)[C@H](O)[C@H]3O)cc(O)c12` [Genistin], at ALDH-I [3], the affinity, expressed as Ki, was 360 nM; the “selectivity of ALDH inhibition” value was “selectively inhibited ALDH-I”; the “potency as ALDH-I inhibitor, fold less than that of daidzin” value is “approximately 10 fold”; the “relative potency as ALDH-I inhibitor, in words” value is listed as “nearly an order of magnitude less potent as an inhibitor than daidzin”. At ALDH-II [4], the inhibition constant (Ki) (as a rule, the dissociation constant of the complex between target and ligand, obtained from inhibition or displacement) was more than 20000 nM. Also, at ALDH-I [5], the “reversibility of ALDH-I inhibition” value is on record as “reversible selective inhibitor of ALDH-I”. In addition, the IC50 on ALDH-I [1] (setting [8]) was found to be 2000 nM. Further, on ALDH-II [2], the IC50 was more than 20000 nM.
Regarding `O=C(O)CCCCCCCCCCOc1ccc2c(=O)c(-c3ccc(O)cc3)coc2c1` [Daidzein 7-(ω-carboxydecyl) ether, daidzein 7-(ω-carboxydecyl)ether], the concentration in solution in “physchem” (solubility) was 9 mM (≈ 3950 µg/mL). Further, at ALDH-II [6], the Ki came to 185 nM.
On to `COc1cc(O)c2c(=O)c(-c3ccc(O)cc3)coc2c1` [Prunetin], for which, on ALDH-I [3], the affinity corresponds to a Ki of 300 nM; the “selectivity of ALDH inhibition” value was “selectively inhibited ALDH-I”; the “potency as ALDH-I inhibitor, fold less than that of daidzin” value is given as “approximately 10 fold”; the “relative potency as ALDH-I inhibitor, in words” value is listed as “nearly an order of magnitude less potent as an inhibitor than daidzin”. Also, on ALDH-II [4], the affinity corresponds to a Ki of 12000 nM. Further, the half-inhibitory concentration (IC50) against ALDH-I [1] came out at 1000 nM. For the same molecule, on ALDH-II [2], the IC50 amounted to 12000 nM.
Take `CC(=O)Oc1ccc2c(=O)c(Cc3ccccc3)c(C)oc2c1OC(C)=O` [3-Benzyl-7,8-diacetoxy-2-methylchromone]: the IC50 at ALDH-I [1] (setting [8]) is 10000 nM; at ALDH-II [2] (setting [9]), 3000 nM.
Take `Cc1ccc2c(c1)OC(=O)CC2c1ccccc1` (stereo not shown) [7-Methyl-4-phenyl-3,4-dihydrocoumarin]: the IC50 on ALDH-II [2] (setting [9]) turned out to be 500 nM.
As for `CN1CC(=O)NC1=O` [1-methylhydantoin], the “ALDH inhibition” value in the data set on ALDH-I or ALDH-II is “not inhibitory”.
Turning to `CC(C)c1ccc(-c2coc3ccccc3c2=O)cc1` [4'-Isopropylisoflavone], the IC50 is 5000 nM at ALDH-I [1] (setting [8]) and 1500 nM on ALDH-II [2] (setting [9]).
The corresponding values for `COc1ccc(-c2cc(=O)c3c(O)cc(O)cc3o2)cc1` [Acacetin] are 5000 nM and 5000 nM.
Consider `O=c1cc(-c2ccccc2)oc2ccccc12` [Flavone], for which the IC50 on ALDH-I [1] (setting [8]) turned out to be 10000 nM; at ALDH-II [2] (setting [9]) it was 5000 nM.
For `CC1=C(c2ccccc2)C(=O)OC2CC(Cl)CCC12` (stereo not shown) [7-Chloro-4A,5,6,7,8,8A-hexahydro-4-methyl-3-phenylcoumarin], the IC50 on ALDH-I [1] (setting [8]) and on ALDH-II [2] (setting [9]) was 1000 nM in each case.
Take `O=C(O)CCCCCOc1ccc2c(=O)c(-c3ccc(O)cc3)coc2c1` [Daidzein 7-(ω-carboxypentyl) ether, daidzein 7-(ω-carboxypentyl) ether]: the “suppression of alcohol intake, hamster C14” value in the data set with golden hamsters (trained hamster C14) was 56%. Further, the “suppression of alcohol intake, hamster D6” value with golden hamsters (trained hamster D6) was determined as 72%. Besides, the solubility (in general, the dissolved amount per volume that the medium holds) in the data set “physchem” came out at 26 mM (≈ 9580 µg/mL). Besides, the Ki at ALDH-II [6] was found to be 450 nM.
`O=c1cc(-c2ccccc2)c2ccc(O)cc2o1` [7-Hydroxy-4-phenylcoumarin]: the IC50 at ALDH-II [2] (setting [9]) turned out to be 300 nM.
On the same count and under the same terms, to `COc1ccc(-c2coc3cc(O[C@@H]4O[C@H](CO)[C@@H](O)[C@H](O)[C@H]4O)ccc3c2=O)cc1` [Ononin] belongs 20000 nM.
For the molecule `NC(=O)NC1NC(=O)NC1=O` (stereo not shown) [allantoin], in the data set with ALDH-I or ALDH-II, the “ALDH inhibition” value is recorded as “not inhibitory”.
For `c1ccc(-c2ccc3ccccc3n2)cc1` [2-phenylquinoline], the “ALDH inhibition” value in the data set on ALDH-I or ALDH-II was “did not inhibit”.

B1: human ALDH-I (Homo sapiens) (protein)
chain: SAAATQAVPAPNQQPEVFCNQIFINNEWHDAVSRKTFPTVNPSTGEVICQVAEGDKEDVDKAVKAARAAFQLGSPWRRMDASHRGRLLNRLADLIERDRTYLAALETLDNGKPYVISYLVDLDMVLKCLRYYAGWADKYHGKTIPIDGDFFSYTRHEPVGVCGQIIPWNFPLLMQAWKLGPALATGNVVVMKVAEQTPLTALYVANLIKEAGFPPGVVNIVPGFGPTAGAAIASHEDVDKVAFTGSTEIGRVIQVAAGSSNLKRVTLELGGKSPNIIMSDADMDWAVEQAHFALFFNQGQCCCAGSRTFVQEDIYDEFVERSVARAKSRVVGNPFDSKTEQGPQVDETQFKKILGYINTGKQEGAKLLCGGGIAADRGYFIQPTVFGDVQDGMTIAKEEIFGPVMQILKFKTIEEVVGRANNSTYGLAAAVFTKDLDKANYLSQALQAGTVWVNCYDVFGAQSPFGGYKMSGSGRELGEYGLQAYTEVKTVTVKVPQKNS
As to B1, in data set [7], the Km – broadly, the substrate concentration at which the rate is half of its maximum – was 0.8 mM.
